The values that follow come from patent US20220265646A1, “PIEZO AGONISTS FOR PREVENTING OR REVERTING ABNORMAL AMYLOID DEPOSITION” (ITÄ-SUOMEN YLIOPISTO, priority 2019, published 2022).

The subject of the assay is primary cortical neurons. In words: Measurement of neurite outgrowth in primary cortical neurons. The class given is cell-based, mouse. The note with it: 5 μM Yoda1, imaging over 150 hours, versus vehicle. How it is done: Measurement of neurite outgrowth in primary cortical neurons. Primary cortical neuron cultures were prepared from mouse embryos of embryonic day 15. The cortices were dissected, and tissue dissociated with 0.0125% trypsin (for 15 min at 37° C., Sigma-Aldrich, St. Louis, Mo., USA). After trypsin inactivation and washing the cells were counted and plated on 48-well-plates (coated with poly-D-lysine, Sigma-Aldrich, St. Louis, Mo., USA) at a density of 125 000 cells/well or on 6-well-plates at a density of 1.8 million cells/well in Neurobasal media supplemented with 2% B27 and 500 μM L-glutamine (all ThermoFisher Scientific, Waltham, Mass., USA) and 10 μg/ml of gentamicin (Sigma Aldrich, St. Louis, Mo., USA). On day 3 or 5 in vitro (DIV) the neurons were fed by changing 50% of media. The neurons were placed in IncuCyte® S3 Live Cell Analysis System (Essen
BioScience Ltd., Hertfordshire, UK) on DIV 0 and treated with 5 μM Yoda1 (Tocris, Bio-Techne Ltd., Abingdon, Oxfordshire, UK) once on DIV 0 or daily until DIV 7, and images were taken every 8 hours for the analysis of neurite length and branch points.

Turning to `Clc1cccc(Cl)c1CSc1nnc(-c2cnccn2)s1` [Yoda1], the “branch points of neurites” value was “more branching points” and the neurite length result is “extended neurite length”.
